A word on the pIC50: it is the negative decadic logarithm of the IC50, by convention in mol/L. The low end stands for a large IC50, the high end for a small IC50.

SMILES strings stand for the structures. pIC50: −log10 of the molar value.

Data on three compounds can be found in ChEMBL document CHEMBL1131502, “Thiol-induced nitric oxide release from 3-halogeno-3,4-dihydrodiazete 1,2-dioxides” (J Med Chem, 1998).

A short description of data set [1]: apparent rate constant value of the compound. Format: ADME.
Data set [2] in a line: The compound was tested for the concentration to reduce the viability of bovine aortic endothelial cell by 50% within 24 hr after compound addition. Format: functional, cell-based. The conditions noted are these: Bos taurus.
Data set [3] is filed under the species Homo sapiens. Put plainly: The compound was tested for half-maximum inhibition of platelet aggregation. It counts as functional.

`CC12CCCCC1(Br)[N+]([O-])=[N+]2[O-]` (stereo not drawn): the rate constant app in data set [1] is 0.072 M⁻¹ s⁻¹. For the same compound, the values for the pIC50 in data set [2] and in data set [3] were 3.64 and 6.00, respectively.

Regarding `CC1(C)[N+]([O-])=[N+]([O-])C1(C)Br` (stereo not drawn), in data set [1], the rate constant app worked out at 0.052 M⁻¹ s⁻¹. The pIC50 in data set [2] was 2.85; in data set [3] it was 5.00.

`CC12CCCCC1(Cl)[N+]([O-])=[N+]2[O-]` (stereo not drawn): the rate constant app in data set [1] is 0.0033 M⁻¹ s⁻¹. Moreover, the negative logarithm of the IC50 (pIC50) in data set [2] was less than 2.22.
